In the case of `CCOc1cc2c(cc1Cl)NC(=O)CC(c1cccc(-c3ccnc(C)c3)c1)=N2` [Example 182, 8-Chloro-7-ethoxy-4-[3-(2-methyl-pyridin-4-yl)-phenyl]-1,3-dihydro-benzo[b][1,4]diazepin-2-one], the melting point is reported as 185 °C.
Compound `CC(C)c1cc(-c2cccc(C3=Nc4cc(Cl)c(C(F)(F)F)cc4NC(=O)C3)c2)ccn1` [Example 273, 7-Chloro-4-[3-(2-isopropyl-pyridin-4-yl)-phenyl]-8-trifluoromethyl-1,3-dihydro benzo[b][1,4]diazepin-2-one] has a melting point of 200 °C.
`O=C1CC(c2cccc(-c3ccnc(C(F)(F)F)c3)c2)=Nc2cc(Cl)c(Cl)cc2N1` [Example 267, 7,8-Dichloro-4-[3-(2-trifluoromethyl-pyridin-4-yl)-phenyl]-1,3-dihydro-benzo[b][1,4]diazepin-2-one] showed a melting point of 226 °C.
In the case of `Cc1cc(-c2cccc(C3=Nc4cc(N(C)C(C)C)c(C(F)(F)F)cc4NC(=O)C3)c2)cc(C)n1` [Example 412, 4-[3-(2,6-Dimethyl-pyridin-4-yl)-phenyl]-7-(isopropyl-methyl-amino)-8-trifluoromethyl-1,3-dihydro-benzo[b][1,4]diazepin-2-one], the melting point is reported as 232 °C.
`Cc1cc2c(cc1Cl)NC(=O)CC(c1cccc(-c3ccnc(CO)c3)c1)=N2` [Example 282, 8-Chloro-4-[3-(2-hydroxymethyl-pyridin-4-yl)-phenyl]-7-methyl-1,3-dihydro-benzo[b][1,4]diazepin-2-one] showed a melting point of 234 °C.
`CCOc1cc2c(cc1C(F)(F)F)NC(=O)CC(c1cccc(-c3ccnc(C(F)(F)F)c3)c1)=N2` [Example 269, 7-Ethoxy-8-trifluoromethyl-4-[3-(2-trifluoromethyl-pyridin-4-yl)-phenyl]-1,3-dihydro-benzo[b][1,4]diazepin-2-one] gave a melting point of 251 °C.
`Cc1cc(-c2cccc(C3=Nc4cc(N5CCCC5)c(C(F)(F)F)cc4NC(=O)C3)c2)ccn1` [Example 365, 4-[3-(2-Methyl-pyridin-4-yl)-phenyl]-7-pyrrolidin-1-yl-8-trifluoromethyl-1,3-dihydro-benzo[b][1,4]diazepin-2-one] gave a melting point of 223 °C.
`O=C1CC(c2cccc(-c3cccnc3)c2)=Nc2ccc(OC(F)(F)F)cc2N1` [Example 185, 4-(3-Pyridin-3-yl-phenyl)-8-trifluoromethoxy-1,3-dihydro-benzo[b][1,4]diazepin-2-one] gave a melting point of 207 °C.
`CCc1ncccc1-c1cccc(C2=Nc3cc(C)c(C(F)(F)F)cc3NC(=O)C2)c1` [Example 234, 4-[3-(2-Ethyl-pyridin-3-yl)-phenyl]-7-methyl-8-trifluoromethyl-1,3-dihydro-benzo[b][1,4]diazepin-2-one] gave a melting point of 213 °C.
Compound `CCOc1cc2c(cc1C(F)(F)F)NC(=O)CC(c1cccc(-c3cnccc3C)c1)=N2` [Example 231, 7-Ethoxy-4-[3-(4-methyl-pyridin-3-yl)-phenyl]-8-trifluoromethyl-1,3-dihydro-benzo[b][1,4]diazepin-2-one] has a melting point of 213 to 214 °C.
`CCc1cc(C)c(-c2cccc(C3=Nc4cc(C)c(C(F)(F)F)cc4NC(=O)C3)c2)cn1` [Example 254, 4-[3-(6-Ethyl-4-methyl-pyridin-3-yl)-phenyl]-7-methyl-8-trifluoromethyl-1,3-dihydro-benzo[b][1,4]diazepin-2-one] showed a melting point of 200 °C.
`Cc1cc(-c2cccc(C3=Nc4cc(OCC(F)(F)F)c(C(F)(F)F)cc4NC(=O)C3)c2)ccn1` [Example 114, 4-[3-(2-Methyl-pyridin-4-yl)-phenyl]-7-(2,2,2-trifluoro-ethoxy)-8-trifluoromethyl-1,3-dihydro-benzo[b][1,4]diazepin-2-one] showed a melting point of 223 °C.
`Cc1nccc(-c2cccc(C3=Nc4cc(OCC(F)(F)F)c(C(F)(F)F)cc4NC(=O)C3)c2)c1C` [Example 145, 4-[3-(2,3-Dimethyl-pyridin-4-yl)-phenyl]-7-(2,2,2-trifluoro-ethoxy)-8-trifluoromethyl-1,3-dihydro-benzo[b][1,4]diazepin-2-one] gave a melting point of 222 °C.
For `CCOc1cc2c(cc1C(F)(F)F)NC(=O)CC(c1cccc(-c3ccnc(CC(C)C)c3)c1)=N2` [Example 280, 4-[3-(2-Isobutyl-pyridin-4-yl)-phenyl]-7-ethoxy-8-trifluoromethyl-1,3-dihydro-benzo[b][1,4]diazepin-2-one], the melting point was 203 °C.
`O=C1CC(c2cccc(-c3ccncc3)c2)=Nc2ccc(F)cc2N1` [Example 8, 8-Fluoro-4-(3-pyridin-4-yl-phenyl)-1,3-dihydro-benzo[b][1,4]diazepin-2-one] gave a melting point of 190 to 192 °C.
Work on `Cc1cc(-c2cccc(C3=Nc4cc(C(F)(F)F)c(C(F)(F)F)cc4NC(=O)C3)c2)ccn1` [Example 414, 4-[3-(2-Methyl-pyridin-4-yl)-phenyl]-7,8-bis-trifluoromethyl-1,3-dihydro-benzo[b][1,4]diazepin-2-one] yielded a melting point of 209 °C.
Work on `Cc1cc2c(cc1Cl)NC(=O)CC(c1cccc(-c3ccnc(CN(C)CC(C)C)c3)c1)=N2` [Example 396, 8-Chloro-4-(3-{2-[(isobutyl-methyl-amino)-methyl]-pyridin-4-yl}-phenyl)-7-methyl-1,3-dihydro-benzo[b][1,4]diazepin-2-one] yielded a melting point of 151 °C.
`Cc1nccc(-c2cccc(C3=Nc4cc(C)c(C(F)(F)F)cc4NC(=O)C3)c2)n1` [Example 301, 7-Methyl-4-[3-(2-methyl-pyrimidin-4-yl)-phenyl]-8-trifluoromethyl-1,3-dihydro-benzo[b][1,4]diazepin-2-one] gave a melting point of 230 to 232 °C.
`O=C1CC(c2cccc(-c3ccc(C4CC4)nc3)c2)=Nc2cc(OCC3CC3)c(C(F)(F)F)cc2N1` [Example 196, 7-Cyclopropylmethoxy-4-[3-(6-cyclopropyl-pyridin-3-yl)-phenyl]-8-trifluoromethyl-1,3-dihydro-benzo[b][1,4]diazepin-2-one] gave a melting point of 223 °C.
With `COc1ccc(-c2cccc(C3=Nc4cc(OCC(F)(F)F)c(C(F)(F)F)cc4NC(=O)C3)c2)cn1` [Example 170, 4-[3-(6-Methoxy-pyridin-3-yl)-phenyl]-7-(2,2,2-trifluoro-ethoxy)-8-trifluoromethyl-1,3-dihydro-benzo[b][1,4]diazepin-2-one] the melting point was 220 to 225 °C.
Compound `CCc1cnc(C)cc1-c1cccc(C2=Nc3cc(Cl)c(Cl)cc3NC(=O)C2)c1` [Example 150, 7,8-Dichloro-4-[3-(5-ethyl-2-methyl-pyridin-4-yl)-phenyl]-1,3-dihydro-benzo[b][1,4]diazepin-2-one] has a melting point of 191 °C.
Work on `CC(C)c1ccc(-c2cccc(C3=Nc4cc(OCC(F)(F)F)c(C(F)(F)F)cc4NC(=O)C3)c2)cn1` [Example 178, 4-[3-(6-Isopropyl-pyridin-3-yl)-phenyl]-7-(2,2,2-trifluoro-ethoxy)-8-trifluoromethyl-1,3-dihydro-benzo[b][1,4]diazepin-2-one] yielded a melting point of 197 °C.
`CCOc1cc2c(cc1C(F)(F)F)NC(=O)CC(c1cccc(-c3cccnc3C3CC3)c1)=N2` [Example 227, 4-[3-(2-Cyclopropyl-pyridin-3-yl)-phenyl]-7-ethoxy-8-trifluoromethyl-1,3-dihydro-benzo[b][1,4]diazepin-2-one] gave a melting point of 187 to 188 °C.
`Cc1cc(-c2cccc(C3=Nc4cc(C)c(C(F)(F)F)cc4NC(=O)C3)c2)ncn1` [Example 308, 7-Methyl-4-[3-(6-methyl-pyrimidin-4-yl)-phenyl]-8-trifluoromethyl-1,3-dihydro-benzo[b][1,4]diazepin-2-one] showed a melting point of 227 to 230 °C.
`O=C1CC(c2cccc(-c3cccnc3C3CC3)c2)=Nc2ccc(C(F)(F)F)cc2N1` [Example 220, 4-[3-(2-Cyclopropyl-pyridin-3-yl)-phenyl]-8-trifluoromethyl-1,3-dihydro-benzo[b][1,4]diazepin-2-one] gave a melting point of 171 to 173 °C.
`Cc1cc2c(cc1Cl)NC(=O)CC(c1ccnc(-c3ccncc3)c1)=N2` [Example 293, 4-[2,4′]Bipyridinyl-4-yl-8-chloro-7-methyl-1,3-dihydro-benzo[b][1,4]diazepin-2-one] showed a melting point of 233 to 235 °C.
`COCCOc1cc2c(cc1C(F)(F)F)NC(=O)CC(c1cccc(-c3cc(C)nc(C)c3)c1)=N2` [Example 243, 4-[3-(2,6-Dimethyl-pyridin-4-yl)-phenyl]-7-(2-methoxy-ethoxy)-8-trifluoromethyl-1,3-dihydro-benzo[b][1,4]diazepin-2-one] showed a melting point of 213 to 214 °C.
With `Cc1cc2c(cc1C(F)(F)F)NC(=O)CC(c1cccc(-c3ccnc(CN(C)CC(C)C)c3)c1)=N2` [Example 360, 4-(3-{2-[(Isobutyl-methyl-amino)-methyl]-pyridin-4-yl}-phenyl)-7-methyl-8-trifluoromethyl-1,3-dihydro-benzo[b][1,4]diazepin-2-one] the melting point was 188 °C.
`CCCOc1cc2c(cc1C(F)(F)F)NC(=O)CC(c1cccc(-c3cc(C)nc(C)c3)c1)=N2` [Example 219, 4-[3-(2,6-Dimethyl-pyridin-4-yl)-phenyl]-7-propoxy-8-trifluoromethyl-1,3-dihydro-benzo[b][1,4]diazepin-2-one] showed a melting point of 205 to 206 °C.
`O=C1CC(c2cccc(-c3cncnc3)c2)=Nc2cc(C(F)(F)F)c(Cl)cc2N1` [Example 111, 8-Chloro-4-(3-pyrimidin-5-yl-phenyl)-7-trifluoromethyl-1,3-dihydro-benzo[b][1,4]diazepin-2-one] gave a melting point of 217 °C.
In the case of `CCOc1cc2c(cc1C(F)(F)F)NC(=O)CC(c1cccc(-c3ccnc(C4CCCC4)c3)c1)=N2` [Example 353, 4-[3-(2-Cyclopentyl-pyridin-4-yl)-phenyl]-7-ethoxy-8-trifluoromethyl-1,3-dihydro-benzo[b][1,4]diazepin-2-one], the melting point is reported as 192 to 193 °C.
Compound `Cc1cc2c(cc1Cl)NC(=O)CC(c1cccc(-c3ccnc(CC(C)C)c3)c1)=N2` [Example 277, 8-Chloro-4-[3-(2-isobutyl-pyridin-4-yl)-phenyl]-7-methyl-1,3-dihydro-benzo[b][1,4]diazepin-2-one] has a melting point of 198 °C.
Compound `COCCNc1cc(-c2cccc(C3=Nc4cc(C)c(Cl)cc4NC(=O)C3)c2)ncn1` [Example 334, 8-Chloro-4-{3-[6-(2-methoxy-ethylamino)-pyrimidin-4-yl]-phenyl}-7-methyl-1,3-dihydro-benzo[b][1,4]diazepin-2-one] has a melting point of 211 to 213 °C.

From US6949542B2, “Dihydro-benzo[b][1,4]diazepin-2-one derivatives” (Hoffman-La Roche Inc., priority 2002, dated 2005)
